Values quoted from earlier work as cited in patent US20090176850A1, “Novel 2-Amino-Imidazole-4-One Compounds And Their Use In The Manufacture Of A Medicament To Be Used In The Treatment Of Cognitive Impairment, Alzheimer's Disease, Neurodegeneration And Dementia” (ASTRAZENECA AB, priority 2005, published 2009).
Non-standard residues stand in square brackets, D forms with d. Residues, ends and D or L forms follow the SMILES beside them. *: point of attachment. Sta = CC(C)C[C@H](N)[C@@H](O)CC(=O)O; Isovaleryl = CC(C)CC(=O)*

Target: BACE (Homo sapiens, UniProt P56817)
Sequence (P56817 46-501): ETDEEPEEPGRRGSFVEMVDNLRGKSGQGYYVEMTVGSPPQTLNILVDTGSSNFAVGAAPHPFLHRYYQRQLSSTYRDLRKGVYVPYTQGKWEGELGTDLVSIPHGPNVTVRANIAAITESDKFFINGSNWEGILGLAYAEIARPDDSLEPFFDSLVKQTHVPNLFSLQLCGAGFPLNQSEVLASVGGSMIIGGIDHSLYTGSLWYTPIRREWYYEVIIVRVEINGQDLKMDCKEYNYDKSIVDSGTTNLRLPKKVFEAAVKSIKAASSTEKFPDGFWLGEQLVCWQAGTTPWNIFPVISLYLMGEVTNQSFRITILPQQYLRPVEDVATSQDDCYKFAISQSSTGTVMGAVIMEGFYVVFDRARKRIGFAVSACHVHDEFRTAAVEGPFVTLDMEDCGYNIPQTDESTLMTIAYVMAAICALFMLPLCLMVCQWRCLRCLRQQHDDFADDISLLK
Settings: Vassar et al, 1999

- inhibition of BACE: inhibited weakly
Compound: CC(C)CC(=O)N[C@H](C(=O)N[C@H](C(=O)N[C@@H](CC(C)C)[C@@H](O)CC(=O)N[C@@H](C)C(=O)N[C@@H](CC(C)C)[C@@H](O)CC(=O)O)C(C)C)C(C)C [pepstatin] (Isovaleryl-VV[Sta]A[Sta]-OH)
